These results are taken from US7879866B2, “Inhibition of the activity of the capsaicin receptor in the treatment of obesity or obesity-related diseases and disorders” (Dorte Xenia Gram, priority 2004, dated 2011).

The target in one assay is T1, capsaicin receptor (Rattus norvegicus, UniProt O35433).
T1 construct: host or cells: whole animal (in vivo pain models)
As to conditions: literature refs 22, 23; cited from earlier work.

In a further assay the test system is male Zucker obese rats. Description: Oral glucose tolerance test (OGTT) and glucose stimulated insulin secretion after oral BCTC. The format is in vivo, rat. As to conditions: 6 month old male Zucker obese rats; BCTC 15 mg/kg p.o. at -30 min; glucose 2 g/kg po at time 0; vs vehicle. An excerpt: Laboratory animals: Male (n=19) Zucker obese rats were purchased from Charles River Laboratories, U.S. The rats were transported to Denmark at the age of 6 weeks and were kept under ambient controlled conditions on a normal day light cycle (lights on at 6 am, lights off at 6 pm) at the Måløv Animal Unit at Novo Nordisk A/S, Denmark from then and until the age of 9 month of age. The rats were kept in groups of 3 rats per cage until the end of the experiment in standard cages (Eurostandard Type IV, Techniplast, Scanbur, Denmark) and were given free access to acidified (0.4% citric acid) tap water and standard chow (Altromin, Brogaarden Aps, Denmark). The cages were supplied with wooden wool (Brogaarden, Denmark) as nesting material and the bedding material was aspen chips (Brogaarden, Denmark), changed twice per week as was the bottles of acidified water.
At 6 month of age, an OGTT was performed shortly after administering a capsaicin receptor antagonist (BCTC) orally. […] Fasting blood glucose and plasma insulin was determined as described below. […] The rats were left in the cage until time 0 where blood glucose was assessed followed by the OGTT. […] Blood glucose and plasma insulin was determined at time 30, 60 and 120 min after glucose. […] Following the experiment, glucose was determined using the glucose oxidase method (EBIO, Eppendorf, Germany). […]

In the next assay the test system is iNOS. The assay is described as follows: Relative gene expression of iNOS in mesenteric adipose tissue (quantitative RT-PCR). The conditions noted are these: 9 month old Zucker obese rats; 1 hour after BCTC 15 mg/kg po; vehicle as calibrator, 36B4 internal standard. It is filed as in vivo, rat. How it is done:
(§1) At 9 months of age, the same rats were tested re. mesenteric inflammatory mediators. The rats were fasted for 18 hours where after they were given BCTC at 15 mg/kg (n=10) or vehicle (n=9) orally by gavage. One hour after treatment, the rats were anaesthetized in isoflurane and decapitated. The mesenteric adipose tissue was quickly removed and transferred to 10× volume pre-chilled RNAlater (Sigma-Aldrich, USA) and stored at −20° C. To prevent area to area effect on gene expressions patterns, 0, 5-1 g tissue was homogenized in TRIzol Reagent (1 ml/100 mg tissue) (TRIzol; Invitrogen Corp.). […] PCR amplification mixtures (25 μl) contained 12.5 μl of 2× Platinum Quantitative PCR SuperMix-UDG (Invitrogen Corp.), 0.625 μl of reverse primer (20 μM), 0.625 μl forward primers (20 μM), 0.625 μl Probe (10 μM) (ProbeLibrary Exiqon A/S, Denmark) and 5 μl diluted cDNA template. Real-time quantitative PCR was carried out using MX3000P PCR machine (Stratagene, USA) with the following cycling parameters: polymerase activation for 10 minutes at 95° C. and amplification for 40 cycles of 30 seconds at 95° C. and 60 seconds at 60° C. […]
(§2) Relative gene expression of iNOS and F4/80 were determined by quantitative RT-PCR comparative Ct method (Applied Biosystems. User Bulletin #2. ABI PRISM 7700 sequence detection system, 1997) using vehicle as calibrator. […]

For a further assay, the system named is F4/80. Description: Relative gene expression of F4/80 in mesenteric adipose tissue (quantitative RT-PCR). The format is in vivo, rat. As to conditions: 9 month old Zucker obese rats; 1 hour after BCTC 15 mg/kg po; vehicle as calibrator, 36B4 internal standard. How it is done:
as §1, §2

T1 sequence (O35433 whole entry): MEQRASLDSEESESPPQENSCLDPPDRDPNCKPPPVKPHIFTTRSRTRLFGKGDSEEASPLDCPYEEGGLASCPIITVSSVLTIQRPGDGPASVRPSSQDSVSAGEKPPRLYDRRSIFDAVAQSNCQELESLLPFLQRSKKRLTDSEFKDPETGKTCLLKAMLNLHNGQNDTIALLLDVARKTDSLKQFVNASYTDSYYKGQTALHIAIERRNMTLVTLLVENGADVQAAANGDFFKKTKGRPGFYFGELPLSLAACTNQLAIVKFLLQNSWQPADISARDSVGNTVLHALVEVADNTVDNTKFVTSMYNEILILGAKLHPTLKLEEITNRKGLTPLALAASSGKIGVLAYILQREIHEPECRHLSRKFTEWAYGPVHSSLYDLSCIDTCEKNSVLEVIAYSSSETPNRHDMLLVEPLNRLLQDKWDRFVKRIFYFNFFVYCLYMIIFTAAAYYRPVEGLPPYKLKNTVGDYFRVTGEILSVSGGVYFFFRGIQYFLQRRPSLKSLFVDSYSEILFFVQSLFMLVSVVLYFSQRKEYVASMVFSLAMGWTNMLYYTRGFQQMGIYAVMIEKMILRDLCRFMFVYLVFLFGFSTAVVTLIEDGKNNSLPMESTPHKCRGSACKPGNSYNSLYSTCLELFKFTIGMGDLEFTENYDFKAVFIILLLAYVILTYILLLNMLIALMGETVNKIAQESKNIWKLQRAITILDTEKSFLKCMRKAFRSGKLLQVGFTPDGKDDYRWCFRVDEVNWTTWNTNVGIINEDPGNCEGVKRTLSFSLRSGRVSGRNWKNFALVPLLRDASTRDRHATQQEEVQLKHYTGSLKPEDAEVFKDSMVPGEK

`CC(C)(C)c1ccc(NC(=O)N2CCN(c3ncccc3Cl)CC2)cc1` [BCTC, N-(4-tertiarybutylphenyl)-4-(3-chloropyridin-2-yl)tetrahydropyrazine-1(2H)-carbox-amide]: at capsaicin receptor, the “inhibiting capsaicin-mediated hyperalgesia, inflammatory hyperalgesia or allodynia, and hyperalgesia after nerve injury” value is reported as “shown effective”. In the assay with male Zucker obese rats, the “blood glucose after oral glucose tolerance test” value was “diminished rise in blood glucose” and the “plasma insulin after oral glucose load (glucose stimulated insulin response)” value is “considerable higher levels of insulin in plasma”. Besides, the “gene expression of iNOS in mesenteric adipose tissue” value in the assay on iNOS is on record as “significantly lower level”. Also, the “gene expression of F4/80 in mesenteric adipose tissue” value in the assay on F4/80 is “significantly lower level”.
